# Assay results from US20090282496A1, “Androgen Receptor Related Methods for Treating Bladder Cancer” (University of Rochester Medical Center, priority 2008, published 2009).
# Tests used:
# [1] = test system: UMUC3 cells; experiment: Cell proliferation assay (MTT), UMUC3; type: cell-based, human; conditions: UMUC3 stable subline, without androgen treatment, vs. control-siRNA
# [2] = test system: TCC-SUP and UMUC3 stable sublines (control-siRNA, AR-siRNA); experiment: Tumor incidence (tumorigenicity) study of control-siRNA and AR-siRNA sublines in nude mice; type: in vivo, male athymic nude mouse; conditions: vs. control-siRNA cells with control treatment; treatment from tumor cell implantation; tumor positive at 40 mm3
# Excerpt: (§1) The reporter plasmids [mouse mammary tumor virus (MMTV)-luciferase (Luc) and (ARE)4-Luc (provided by Dr. Michael L. Lu at Harvard Medical School)] as well as a retrovirus vector pMSCV/U6 (Clontech)-AR-siRNA were described in previous studies (Miyamoto et al., Int. J. Cancer, 117:866-72 (2005) and Yeh et al., J. Exp. Med. 198:1899-908 (2003)). Using SuperFect reagent (Qiagen), stable cell lines expressing the AR-siRNA were established by transfecting pMSCV/U6-AR-siRNA into Phi-NX packaging retrovirus producer cells (developed by the Nolan Lab at Stanford University). The target cells (i.e., TCC-SUP, UMUC3, and 5637) were then cultured in the presence of the viral supernatant, and infected cells were selected with puromycin (Sigma).
# Bladder cancer cell lines (TCC-SUP, UMUC3, and 5637) were harvested, washed twice with PBS, and resuspended in Matrigel (BD Bioscience) at a final concentration of 1×10^7 cells/mL. Cells (1×10^6 cells in 100 μl per site) were then injected subcutaneously into the right and left flanks of 6-week-old male athymic nude mouse. Treatment (castration or sham surgery, flutamide [0.5 mg/mouse] or placebo pellet injection, and the recently developed anti-AR molecule ASC-J9 (50 mg/Kg or DMSO injection) (Ohtsu et al., J. Med. Chem., 45:5037-42 (2002)) was initiated either (1) at the same time as tumor cell injection (for tumor incidence studies, n=8 mice in each group) or (2) when the sizes of all tumors reached 40 mm^3 (for tumor progression studies, n=12 tumors from 6 mice in each group). Hormonal pellets were replaced as required (every 90 days). Tumor weight was calculated by the following formula: tumor weight (mg)=tumor length (mm)×[tumor width (mm)]^2×0.5 (Geram et al., Cancer Chemother. Rep., 3:47-52 (1972)). Using calipers, each tumor was measured twice a week until either the tumor size reached 40 mm^3 (for tumor incidence study) (Chen et al., Nat. Med., 10:33-9 (2004)), or until the tumor exceeded 10% of the animal's body weight, at which time the mouse was killed (for tumor progression study).
# [3] = test system: TCC-SUP cells; experiment: Cell proliferation assay (MTT), TCC-SUP; type: cell-based, human; conditions: TCC-SUP stable subline, without androgen treatment, vs. control-siRNA
# [4] = test system: AR; experiment: AR knockdown in stable transfectants (RT-PCR, immunoblot); type: cell-based, human; conditions: AR-siRNA-expressing TCC-SUP and UMUC3 cells vs. scrambled control-siRNA
# Excerpt: as §1
# Total RNA from mouse bladder and xenograft tumor tissues and cultured cells was extracted by the acid guanidinium-phenol-chloroform method as previously described (Miyamoto et al., Cancer, 75:2565-70 (1995)) or by using Trizol reagent (Life Science). […] Using the iCycler (Bio-Rad) and the methods previously described by Miyoshi et al., Prostate, 56:280-6 (2003), real-time quantitative PCR analysis of AR, basic fibroblast growth factor (bFGF), vascular endothelial growth factor (VEGF), and matrix metalloproteinase-9 (MMP-9) was performed on the tissue samples from mouse xenograft tumors. […]
substance,measurement,setting,value
AR-siRNA: siRNA against AR expressed from retrovirus vector pMSCV/U6-AR-siRNA; knocks down the AR in mammalian cells (guide GGGCCCCTGGATGGATAGCTACCTCGAGGTAGCTATCCATCCAGGGGCC; listed as Homo sapiens),reduction of cell proliferation by AR knockdown,[1],15%
same,latency of tumor formation,[2],substantially prolonged
same,reduction of cell proliferation by AR knockdown,[3],20%
same,levels of AR mRNA and protein,[4],substantially lower
